Experimental data reported in US20100190794A1, “Herbicidally Active Composition” (BASF SE, priority 2007, published 2010).

Tests used:
Assay in all cases: greenhouse test, pre-emergence treatment
PHACA = format: in vivo, Phalaris canariensis; conditions: Use Example 20
Description: (§1) The culture containers used were plastic pots containing loamy sand with approximately 3.0% of humus as substrate. The seeds of the test plants were sown separately for each species.
(§2) For the pre-emergence treatment, the active compounds, suspended or emulsified in water, were applied directly after sowing by means of finely distributing nozzles. The containers were irrigated gently to promote germination and growth and subsequently covered with transparent plastic hoods until the plants had rooted. This cover caused uniform germination of the test plants unless this was adversely affected by the active compounds.
(§3) Depending on the species, the plants were kept at 10-25° C. and 20-35° C., respectively. The test period extended over 2 to 4 weeks. During this time, the plants were tended and their response to the individual treatments was evaluated.
(§4) Evaluation was carried out using a scale from 0 to 100. 100 means no emergence of the plants, or complete destruction of at least the above-ground parts, and 0 means no damage or normal course of growth. Good herbicidal activity is given at values of at least 70, and very good herbicidal activity is given at values of at least 85.
(§5) The respective stated components A and B, and if appropriate, C were formulated as a 5% by weight or 10% by weight strength emulsion concentrate or a commercially available formulation of component B was used and, with addition of the amount of solvent system, introduced into the spray liquor used for applying the active compound. In the examples, the solvent used was water.
(§6) The test period extended over 20 or 21 days. During this time, the plants were tended, and their reactions to the treatment with active compound was monitored.
(§7) What was evaluated was the damage by the chemical compositions using a scale of from 0 to 100%, in comparison to the untreated control plants. 0 means no damage, and 100 means complete destruction of the plants.
(§8) In the examples below, using the method of S. R. Colby (1967) “Calculating synergistic and antagonistic responses of herbicide combinations”, Weeds 15, p. 22 ff., the value E, which is expected if the activity of the individual active compounds is only additive, was calculated.
(§9) where X=percent activity using active compound A at an application rate a; Y=percent activity using active compound B at an application rate b; E=expected activity (in %) by A+B at application rates a+b.
(§10) If the value found in experiments is higher than the value E calculated according to Colby, a synergistic effect is present.

ALOMY = format: in vivo, Alopecurus myosuroides
Description: as §1, §2, §3, §4, §5, §6, §7, §8, §9, §10

POAAN = format: in vivo, Poa annua
Description: as §1, §2, §3, §4, §5, §6, §7, §8, §9, §10

LAMPU = format: in vivo, Lamium purpureum
Description: as §1, §2, §3, §4, §5, §6, §7, §8, §9, §10

APESV = format: in vivo, Apera spica-venti
Description: as §1, §2, §3, §4, §5, §6, §7, §8, §9, §10

ECHCG = format: in vivo, Echinochloa crus-galli
Description: as §1, §2, §3, §4, §5, §6, §7, §8, §9, §10

BRAPL = format: in vivo, Brachiaria plantaginea; conditions: for Herbicidal action in % after 21 days against BRAPL: Use Example 8
Description: as §1, §2, §3, §4, §5, §6, §7, §8, §9, §10

DIGSA = format: in vivo, Digitaria sanguinalis
Description: as §1, §2, §3, §4, §5, §6, §7, §8, §9, §10

SETLU = format: in vivo, Setaria glauca
Description: as §1, §2, §3, §4, §5, §6, §7, §8, §9, §10

SETFA = format: in vivo, Setaria faberi
Description: as §1, §2, §3, §4, §5, §6, §7, §8, §9, §10

SOLNI = format: in vivo, Solanum nigrum L.
Description: as §1, §2, §3, §4, §5, §6, §7, §8, §9, §10

CCHEC = format: in vivo, Cenchrus echinatus; conditions: Use Example 16
Description: as §1, §2, §3, §4, §5, §6, §7, §8, §9, §10

LOLMU = format: in vivo, Lolium multiflorum; conditions: Use Example 21
Description: as §1, §2, §3, §4, §5, §6, §7, §8, §9, §10

[1] = 31.25 g/ha a.s., Use Example 23
[2] = 31.25 g/ha a.s., Use Example 14

Structure (SMILES): O=C(Nc1ccc(F)cc1)c1cccc(Oc2cccc(C(F)(F)F)c2)n1 [Picolinafen, reference compound]
- Herbicidal action in % after 20 days against PHACA (PHACA; 25 g/ha a.s.): 0%
- Herbicidal action in % after 20 days against ALOMY (ALOMY; 25 g/ha a.s., Use Example 7): 0%
- Herbicidal action in % after 20 days against POAAN (POAAN; 25 g/ha a.s., Use Example 7): 0%
- Herbicidal action in % after 20 days against LAMPU (LAMPU; 25 g/ha a.s., Use Example 20): 0%
- Herbicidal action in % after 20 days against APESV (APESV; 25 g/ha a.s., Use Example 20): 60%

Structure (SMILES): COC[C@H](C)N(C(=O)CCl)c1c(C)csc1C [Dimethenamide-P, reference compound]
- Herbicidal action in % after 20 days against ECHCG (ECHCG; 16 g/ha a.s., Use Example 23): 50%
- Herbicidal action in % after 20 days against ECHCG (ECHCG; [1]): 85%
- Herbicidal action in % after 20 days against BRAPL (BRAPL; 16 g/ha a.s., Use Example 23): 40%
- Herbicidal action in % after 20 days against BRAPL (BRAPL; [1]): 50%
- Herbicidal action in % after 20 days against DIGSA (DIGSA; 16 g/ha a.s., Use Example 23): 70%
- Herbicidal action in % after 20 days against DIGSA (DIGSA; [2]): 90%
- Herbicidal action in % after 20 days against DIGSA (DIGSA; [1]): 85%
- Herbicidal action in % after 20 days against SETLU (SETLU; [2]): 65%
- Herbicidal action in % after 20 days against SETFA (SETFA; [2]): 95%
- Herbicidal action in % after 20 days against SOLNI (SOLNI; 16 g/ha a.s., Use Example 23): 60%
- Herbicidal action in % after 20 days against SOLNI (SOLNI; [1]): 80%

Structure (SMILES): O=C(O)c1c(Cl)ccc2cc(Cl)cnc12 [Quinclorac]
- Herbicidal action in % after 20 days against CCHEC (CCHEC; 62.5 g/ha a.s.): 0%
- Herbicidal action in % after 20 days against CCHEC (CCHEC; 125 g/ha a.s.): 20%
- Herbicidal action in % after 20 days against BRAPL (BRAPL; 62.5 g/ha a.s., Use Example 16): 0%
- Herbicidal action in % after 20 days against BRAPL (BRAPL; 125 g/ha a.s., Use Example 16): 25%
- Herbicidal action in % after 20 days against SETLU (SETLU; 62.5 g/ha a.s., Use Example 16): 50%
- Herbicidal action in % after 20 days against SETLU (SETLU; 125 g/ha a.s., Use Example 16): 85%

Structure (SMILES): CCC(C)(CC)c1cc(NC(=O)c2c(OC)cccc2OC)on1 [Isoxaben, reference compound]
- Herbicidal action in % after 20 days against ALOMY (ALOMY; 25 g/ha a.s., Use Example 15): 0%
- Herbicidal action in % after 20 days against ALOMY (ALOMY; 50 g/ha a.s., Use Example 15): 0%
- Herbicidal action in % after 20 days against POAAN (POAAN; 25 g/ha a.s., Use Example 15): 0%
- Herbicidal action in % after 20 days against POAAN (POAAN; 50 g/ha a.s., Use Example 15): 0%

Structure (SMILES): CN1C(=O)C(Cc2ccccc2)N(C)C(=O)C1=Cc1ccccc1C#N (racemic) [Compound I-1 (Z) (Racemate), 2-[5-benzyl-1,4-dimethyl-3,6-dioxopiperazin-2-ylidenemethyl]benzonitrile]
- Herbicidal action in % after 20 days against LOLMU (LOLMU; 63 g/ha a.s.): 30%
- Herbicidal action in % after 20 days against LOLMU (LOLMU; 125 g/ha a.s.): 50%
- Herbicidal action in % after 20 days against PHACA (PHACA; 125 g/ha a.s.): 65%
- Herbicidal action in % after 20 days against PHACA (PHACA; 250 g/ha a.s.): 90%
- Herbicidal action in % after 20 days against ECHCG (ECHCG; 125 g/ha a.s., Use Example 22): 20%
- Herbicidal action in % after 20 days against ECHCG (ECHCG; 125 g/ha a.s., Use Example 23): 20%
- Herbicidal action in % after 20 days against ECHCG (ECHCG; 250 g/ha a.s., Use Example 22): 70%
- Herbicidal action in % after 20 days against ECHCG (ECHCG; 250 g/ha a.s., Use Example 23): 70%
- Herbicidal action in % after 20 days against ALOMY (ALOMY; 63 g/ha a.s., Use Example 21): 30%
- Herbicidal action in % after 20 days against ALOMY (ALOMY; 125 g/ha a.s., Use Example 21): 75%
- Herbicidal action in % after 20 days against BRAPL (BRAPL; 125 g/ha a.s., Use Example 23): 40%
- Herbicidal action in % after 20 days against BRAPL (BRAPL; 250 g/ha a.s., Use Example 19): 75%
- Herbicidal action in % after 20 days against BRAPL (BRAPL; 250 g/ha a.s., Use Example 23): 75%
- Herbicidal action in % after 20 days against DIGSA (DIGSA; 125 g/ha a.s., Use Example 22): 40%
- Herbicidal action in % after 20 days against DIGSA (DIGSA; 125 g/ha a.s., Use Example 23): 40%
- Herbicidal action in % after 20 days against DIGSA (DIGSA; 250 g/ha a.s., Use Example 19): 65%
- Herbicidal action in % after 20 days against DIGSA (DIGSA; 250 g/ha a.s., Use Example 22): 65%
- Herbicidal action in % after 20 days against DIGSA (DIGSA; 250 g/ha a.s., Use Example 23): 65%
- Herbicidal action in % after 20 days against LAMPU (LAMPU; 63 g/ha a.s., Use Example 21): 0%
- Herbicidal action in % after 20 days against LAMPU (LAMPU; 125 g/ha a.s., Use Example 20): 30%
- Herbicidal action in % after 20 days against LAMPU (LAMPU; 125 g/ha a.s., Use Example 21): 30%
- Herbicidal action in % after 20 days against LAMPU (LAMPU; 250 g/ha a.s., Use Example 20): 80%
- Herbicidal action in % after 20 days against SETFA (SETFA; 125 g/ha a.s., Use Example 22): 75%
- Herbicidal action in % after 20 days against SETFA (SETFA; 250 g/ha a.s., Use Example 19): 85%
- Herbicidal action in % after 20 days against SETFA (SETFA; 250 g/ha a.s., Use Example 22): 85%
- Herbicidal action in % after 20 days against SOLNI (SOLNI; 125 g/ha a.s., Use Example 22): 40%
- Herbicidal action in % after 20 days against SOLNI (SOLNI; 125 g/ha a.s., Use Example 23): 40%
- Herbicidal action in % after 20 days against SOLNI (SOLNI; 250 g/ha a.s., Use Example 19): 65%
- Herbicidal action in % after 20 days against SOLNI (SOLNI; 250 g/ha a.s., Use Example 22): 65%
- Herbicidal action in % after 20 days against SOLNI (SOLNI; 250 g/ha a.s., Use Example 23): 65%
- Herbicidal action in % after 20 days against APESV (APESV; 63 g/ha a.s., Use Example 21): 80%
- Herbicidal action in % after 20 days against APESV (APESV; 125 g/ha a.s., Use Example 20): 90%
- Herbicidal action in % after 20 days against APESV (APESV; 125 g/ha a.s., Use Example 21): 90%
- Herbicidal action in % after 20 days against APESV (APESV; 250 g/ha a.s., Use Example 20): 95%

Structure (SMILES): CC1(C)CON(Cc2ccccc2Cl)C1=O [Clomazon, Clomazone]
- Herbicidal action in % after 21 days against BRAPL (BRAPL; 50 g/ha a.s.): 65%
- Herbicidal action in % after 21 days against BRAPL (BRAPL; 100 g/ha a.s.): 85%
